Data published in ChEMBL document CHEMBL5518244, “Design, Synthesis, and Biological Evaluation of a Novel NIK Inhibitor with Anti-Inflammatory and Hepatoprotective Effects for Sepsis Treatment” (J Med Chem, 2024).
Active and inactive are the calls of the source. No cut-off for these calls is given here.

How the values were obtained:
[1] = molecular target: T1, Mitogen-activated protein kinase kinase kinase 14 (Homo sapiens, UniProt Q99558); assay: Inhibition of NIK (unknown origin) incubated 30 to 60 mins by ADP-Glo Kinase
Target sequence in this assay (Q99558 whole entry): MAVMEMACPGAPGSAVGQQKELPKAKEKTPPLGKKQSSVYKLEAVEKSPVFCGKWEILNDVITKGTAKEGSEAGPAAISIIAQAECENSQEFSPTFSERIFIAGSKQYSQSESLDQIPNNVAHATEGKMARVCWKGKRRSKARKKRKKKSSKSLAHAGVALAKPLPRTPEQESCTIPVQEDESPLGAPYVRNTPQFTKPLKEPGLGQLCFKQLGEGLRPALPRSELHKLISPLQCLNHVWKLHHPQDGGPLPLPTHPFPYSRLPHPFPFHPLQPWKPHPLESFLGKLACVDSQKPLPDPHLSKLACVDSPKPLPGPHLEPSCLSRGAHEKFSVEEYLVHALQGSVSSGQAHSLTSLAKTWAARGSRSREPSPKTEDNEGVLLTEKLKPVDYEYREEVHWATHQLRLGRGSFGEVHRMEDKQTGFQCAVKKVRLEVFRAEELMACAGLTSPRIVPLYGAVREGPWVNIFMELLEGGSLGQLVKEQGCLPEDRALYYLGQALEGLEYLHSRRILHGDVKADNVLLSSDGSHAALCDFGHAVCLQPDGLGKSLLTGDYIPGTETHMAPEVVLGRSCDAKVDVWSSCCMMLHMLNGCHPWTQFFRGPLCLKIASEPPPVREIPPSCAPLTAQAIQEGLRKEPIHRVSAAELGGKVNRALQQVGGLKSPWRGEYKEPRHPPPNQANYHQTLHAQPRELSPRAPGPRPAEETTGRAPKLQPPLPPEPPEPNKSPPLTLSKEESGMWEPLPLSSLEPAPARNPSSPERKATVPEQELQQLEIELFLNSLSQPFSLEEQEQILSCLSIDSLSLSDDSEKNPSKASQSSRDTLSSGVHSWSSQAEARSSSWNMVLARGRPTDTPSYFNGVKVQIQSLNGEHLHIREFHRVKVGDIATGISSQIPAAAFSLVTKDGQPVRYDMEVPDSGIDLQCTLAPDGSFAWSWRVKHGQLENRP

Macrophage = assay: Anti-inflammatory activity in mouse macrophages extracted from abdominal activity assessed as inhibition of LPS-induced nitric oxide production at 1 uM measured after 22 hrs by Griess reagent assay relative to control; type: functional, cell-based
[2] = molecular target: T1, Mitogen-activated protein kinase kinase kinase 14; assay: Inhibition of NIK (unknown origin) expressed in COS-7 cells co-expressing NF-KappaB luciferase reporter assessed as suppression of luciferase reporter at 5 uM measured after 24 by beta-Gal activity assay; type: cell-based
Target sequence in this assay (Q99558 whole entry, looked up): as the sequence (Q99558 whole entry) above

[3] = molecular target: T1, Mitogen-activated protein kinase kinase kinase 14; assay: Inhibition of NIK (unknown origin) expressed in COS-7 cells co-expressing NF-KappaB luciferase reporter assessed as suppression of luciferase reporter measured after 24 by beta-Gal activity assay; type: cell-based
Target sequence in this assay (Q99558 whole entry): as above

[4] = molecular target: T1, Mitogen-activated protein kinase kinase kinase 14; assay: Inhibition of NIK (unknown origin) expressed in COS-7 cells co-expressing NF-KappaB luciferase reporter assessed as suppression of luciferase reporter at 1 uM measured after 24 by beta-Gal activity assay; type: cell-based
Target sequence in this assay (Q99558 whole entry, looked up): as the sequence (Q99558 whole entry) above

IC50 [1] [nM] | SMILES | other results
4.76 | CC(O)(C#Cc1cc2n(n1)CCCN2c1ccnc(Nc2ccccc2)n1)c1nccs1 (stereo not given) | IC50 (Macrophage): 59400 nM; inhibition [2]: Active; IC50 [3]: 2170 nM; inhibition [4]: Active
> 500 | CC(O)(C#Cc1cc2n(n1)CCCN2c1ncnc2[nH]ccc12)c1nccs1 (stereo not given) | 
22.7 | CC(C)(O)C#Cc1cc2n(n1)CCCN2c1ccnc(Nc2ccc3c(c2)OCO3)n1 | 
9.36 | Cn1ccc(Nc2nccc(N3CCCn4nc(C#CC(C)(O)c5nccs5)cc43)n2)n1 (stereo not given) | 
14.8 | COCCN(C)c1cccc(Nc2nccc(N3CCCn4nc(C#CC(C)(O)c5nccs5)cc43)n2)n1 (stereo not given) | 
4.43 | COc1cccc(Nc2nccc(N3CCCn4nc(C#CC(C)(O)c5nccs5)cc43)n2)n1 (stereo not given) | 
7.76 | CN(C)c1cccc(Nc2nccc(N3CCCn4nc(C#CC(C)(O)c5nccs5)cc43)n2)c1 (stereo not given) | IC50 (Macrophage): 76800 nM; inhibition [2]: Active; IC50 [3]: 2230 nM; inhibition [4]: Active
> 500 | C(#CC1CC1)c1cc2n(n1)CCCN2c1ccnc(Nc2ccc3c(c2)OCO3)n1 | 
6.96 | CC(O)(C#Cc1cc2n(n1)CCCN2c1ccnc(Nc2cc(C#N)ccn2)n1)c1nccs1 (stereo not given) | 
2.68 | CC(O)(C#Cc1ccc2c(c1)N(c1nc(N)ncc1Cl)CC2)c1nccs1 (stereo not given) | IC50 (Macrophage): 58600 nM; IC50 [3]: 910 nM
6.74 | COc1cc(Nc2nccc(N3CCCn4nc(C#CC(C)(O)c5nccs5)cc43)n2)cc(OC)c1 (stereo not given) | 
58.4 | CC(O)(C#Cc1cc2n(n1)CCCN2c1cc(Nc2ccc(F)cc2)ncn1)c1nccs1 (stereo not given) | 
29.1 | CC(O)(C#Cc1cc2n(n1)CCCN2c1ccnc(Nc2ccc3c(c2)OCO3)n1)c1ccccc1 (stereo not given) | 
11.3 | CC(O)(C#Cc1cc2n(n1)CCCN2c1ccnc(Nc2ccccc2)c1)c1nccs1 (stereo not given) | 
> 500 | CC(O)(C#Cc1cc2n(n1)CCCN2c1nc(N)ncc1F)c1nccs1 (stereo not given) | 
9.17 | CC(C)n1cc(Nc2nccc(N3CCCn4nc(C#CC(C)(O)c5nccs5)cc43)n2)cn1 (stereo not given) | 
208 | CN(C)c1ccnc(Nc2nccc(N3CCCn4nc(C#CC(C)(O)c5nccs5)cc43)n2)c1 (stereo not given) | 
4.6 | CC(O)(C#Cc1cc2n(n1)CCCN2c1ccnc(N)n1)c1nccs1 (stereo not given) | 
131 | CC(O)(C#Cc1cc2n(n1)CCCN2c1ccnc(NC2CCCCC2)n1)c1nccs1 (stereo not given) | 
> 500 | CC(O)(C#Cc1cc2n(n1)CCCN2c1cccc(Nc2ccccc2)n1)c1nccs1 (stereo not given) | 
5.1 | COc1ccnc(Nc2nccc(N3CCCn4nc(C#CC(C)(O)c5nccs5)cc43)n2)c1 (stereo not given) | 
16.5 | CC(C)Oc1cccc(Nc2nccc(N3CCCn4nc(C#CC(C)(O)c5nccs5)cc43)n2)n1 (stereo not given) | 
11.2 | CNc1nccc(N2CCCn3nc(C#CC(C)(O)c4nccs4)cc32)n1 (stereo not given) | 
24.6 | CC(O)(C#Cc1cc2n(n1)CCCN2c1ccnc(Nc2cccc(N3CCCCC3)n2)n1)c1nccs1 (stereo not given) | 
10.7 | COc1cc(Nc2nccc(N3CCCn4nc(C#CC(C)(O)c5nccs5)cc43)n2)nc(OC)c1 (stereo not given) | 
5.39 | CC(O)(C#Cc1cc2n(n1)CCCN2c1ccnc(NC23CC(C2)C3)n1)c1nccs1 (stereo not given) | IC50 (Macrophage): 16500 nM; inhibition [2]: Active; IC50 [3]: 1510 nM; inhibition [4]: Active
34.2 | COCCNc1nccc(N2CCCn3nc(C#CC(C)(O)c4nccs4)cc32)n1 (stereo not given) | 
9.8 | CC(O)(C#Cc1cc2n(n1)CCCN2c1ccnc(Nc2cccc(N3CCOCC3)n2)n1)c1nccs1 (stereo not given) | IC50 (Macrophage): 17200 nM; inhibition [2]: Active; IC50 [3]: 2430 nM; inhibition [4]: Active

IC50 [1] [nM] | SMILES | other results
6.17 | CC(O)(C#Cc1cc2n(n1)CCCN2c1ccnc(Nc2ccc(F)cc2)n1)c1nccs1 (stereo not given) | 
433 | COc1cccnc1Nc1nccc(N2CCCn3nc(C#CC(C)(O)c4nccs4)cc32)n1 (stereo not given) | 
> 500 | OC1(C#Cc2cc3n(n2)CCCN3c2ccnc(Nc3ccc4c(c3)OCO4)n2)COC1 | 
4.73 | CC(O)(C#Cc1cc2n(n1)CCCN2c1ncnc(Nc2ccc(Cl)cc2)n1)c1nccs1 (stereo not given) | 
6.46 | CC(O)(C#Cc1cc2n(n1)CCCN2c1ccnc(Nc2ccc(Cl)cc2)n1)c1nccs1 (stereo not given) | 
7.44 | COc1ccc(Nc2nccc(N3CCCn4nc(C#CC(C)(O)c5nccs5)cc43)n2)nc1 (stereo not given) | 
3.78 | Cc1cc(C(C)(O)C#Cc2cc3n(n2)CCCN3c2ccnc(Nc3ccc4c(c3)OCO4)n2)no1 (stereo not given) | 
22.1 | CC(O)(C#Cc1cc2n(n1)CCCN2c1ccnc(Nc2ccc3ccccc3n2)n1)c1nccs1 (stereo not given) | 
16.6 | CC(O)(C#Cc1cc2n(n1)CCCN2c1ccnc(Nc2cccc(C(F)(F)F)n2)n1)c1nccs1 (stereo not given) | 
2.85 | CC(O)(C#Cc1cc2n(n1)CCCN2c1ccnc(Nc2ccc3c(c2)OCO3)n1)c1nccs1 (stereo not given) | IC50 (Macrophage): 80300 nM; inhibition [2]: Active; IC50 [3]: 1410 nM; inhibition [4]: Active
5.77 | COc1cccc(Nc2nccc(N3CCCn4nc(C#CC(C)(O)c5nccs5)cc43)n2)c1 (stereo not given) | IC50 (Macrophage): 45900 nM; inhibition [2]: Active; IC50 [3]: 1330 nM; inhibition [4]: Active
14.1 | OC1(C#Cc2cc3n(n2)CCCN3c2ccnc(Nc3ccc4c(c3)OCO4)n2)CCCC1 | 
14.3 | CC(C)Nc1nccc(N2CCCn3nc(C#CC(C)(O)c4nccs4)cc32)n1 (stereo not given) | 
70.8 | CC(O)(C#Cc1cc2n(n1)CCCN2c1nc(N)ncc1Cl)c1nccs1 (stereo not given) | 
> 500 | C(#Cc1cc2n(n1)CCCN2c1ccnc(Nc2ccc3c(c2)OCO3)n1)c1ccccn1 | 
5.35 | Cn1cc(Nc2nccc(N3CCCn4nc(C#CC(C)(O)c5nccs5)cc43)n2)cn1 (stereo not given) | 
5.93 | CC(O)(C#Cc1cc2n(n1)CCCN2c1ccnc(Nc2ccccn2)n1)c1nccs1 (stereo not given) | 
13 | CN(C)c1cccc(Nc2nccc(N3CCCn4nc(C#CC(C)(O)c5nccs5)cc43)n2)n1 (stereo not given) | 
341 | CC(O)(C#Cc1cc2n(n1)CCCN2c1ccnc(Nc2cc(N3CCOCC3)ccn2)n1)c1nccs1 (stereo not given) | 
11.3 | CC(O)(C#Cc1cc2n(n1)CCCN2c1ccnc(Nc2ccncn2)n1)c1nccs1 (stereo not given) | 
4.33 | OC1(C#Cc2cc3n(n2)CCCN3c2ccnc(Nc3ccc4c(c3)OCO4)n2)CCn2ccnc21 (stereo not given) | 
6.99 | CC(O)(C#Cc1cc2n(n1)CCCN2c1ccnc(Nc2cc(Cl)ccn2)n1)c1nccs1 (stereo not given) | 
89.4 | COc1cc(Nc2nccc(N3CCCn4nc(C#C[C@](C)(O)c5nccs5)cc43)n2)cc(OC)c1 | 
15.4 | CC(O)(C#Cc1cc2n(n1)CCCN2c1ccnc(Nc2ccc3c(c2)OC(F)(F)O3)n1)c1nccs1 (stereo not given) | 
8.34 | CC(O)(C#Cc1cc2n(n1)CCCN2c1ccnc(Nc2ccc(F)cn2)n1)c1nccs1 (stereo not given) | 
11.5 | CC(O)(C#Cc1cc2n(n1)CCCN2c1ccnc(Nc2cccc(N3CCOCC3)c2)n1)c1nccs1 (stereo not given) | 
5.01 | CC(O)(C#Cc1cc2n(n1)CCCN2c1ccnc(Nc2cccc(C#N)c2)n1)c1nccs1 (stereo not given) | IC50 (Macrophage): 64100 nM; inhibition [2]: Active; IC50 [3]: 3560 nM; inhibition [4]: Active
